# Experimental data from patent US6242452A, “7-aminopyrido[2,3-D]pyrimidine derivatives” (Nippon Zoki Pharmaceutical Co., Ltd., priority 1998, dated 2001).
# Tests used:
# [1] = test system: airway smooth muscle isolated from guinea pigs; test: Relaxing action to smooth muscle of airway of guinea pigs (histamine-constricted); assay type: cell-based; conditions: Cavia porcellus; guinea pig airway, constricted with 10^-4 M histamine, cumulative addition; read-out: EC50, concentration showing 50% of the maximum reaction (relaxation)
# From the text: […] Action to Smooth Muscle of Airway of Guinea Pigs A guinea pig was killed by draining out the blood, the airway was isolated, and four airway pieces having a width of about 1 cm cut along the cartilage were connected by silk yarn to prepare an airway smooth muscle sample. The sample was hung with a load of about 0.5 g in a 5-mL Magnus vessel filled with a Tyrode solution and aerated with a mixed gas (95% O2 and 5% CO2). […] This was repeatedly treated with 10^-5 M of histamine and, after confirming that the constriction became constant, it was treated with 10^-4 M of histamine. After the maximum constriction reaction of the smooth muscle became constant, the test compound was added thereto starting from a low concentration cumulatively to investigate the relaxing action. […] Pat. […] Pat. No. 4,808,587 to Go et al and in U.S. Pat. No. 5,776,942 to Furukawa et al) and theophylline were used as control agents.
# [2] = test system: Mice; test: Influence on general symptoms of mice (modified Irwin's method); assay type: in vivo; conditions: for Death: oral, 5 mice per group, until the next day
# Procedure: Influence on General Symptoms of Mice
# Mice having no abnormality in their appearance before administration of the test drugs were selected, and five mice were used for each group. Oral administration of the test compound was carried out and, 30 minutes, one hour and two hours thereafter, observations were conducted according to the modified method of Irwin's method for observing the general symptoms of mice. Degree of the symptom was evaluated in terms of (+) and (-) and, when the symptom was apparently severe, it was mentioned as (++). Also, death was observed until the next day of the administration.
# 1) Suppression of spontaneous motility: When mice were transferred from a home cage to a cage for symptom observation and, if motion of the mice was less than the non-administered group at that time, that was evaluated as (+).
# 2) Muscle relaxation: When forefeet of mice were hung on a wire stretched horizontally so that the mice were hung by means of the forefeet and, if their reaction at that time for climbing up the wire took a longer time than the non-administered group, that was evaluated as (+).
# 4) Blepharoptosis: If 1/4 or more was closed as compared with the non-administered group, that was evaluated as (+).
# 5) Salivation: If salivation was noted a little around the mouth, that was evaluated as (+).
# 6) Death: If dead case was noted, that was mentioned as such.
# 5-Amino-1,3-diethyl-1,2,3,4-tetrahydropyrido[2,3-d]-pyrimidine-2,4-dione (Control Compound B; a compound mentioned in Japanese Laid-Open Patent Publication Sho-63/45279 and in U.S. Pat. Nos. 4,808,587 and 5,776,942) was used as a control drug.
# [3] = Concentration in blood of guinea pigs; assay type: in vivo; conditions: oral, 30 mg/kg in 1% methyl cellulose, plasma, HPLC; for AUC / Cmax / half-life / Tmax: guinea pig; for AUC: read-out: AUC 0-lim, area under a curve of concentration in blood vs. time; for Cmax: read-out: Cmax, maximum concentration in blood; for half-life: read-out: T1/2, half life in blood (converted); for Tmax: read-out: Tmax, time required for achieving the maximum concentration in blood
# Procedure: Concentration in Blood of Guinea Pigs
# Each test substance was orally administered at a dose of 30 mg/kg. It was suspended in 1% methyl cellulose and made into a preparation so as to make the administering dose 5 mL/kg. A group consisted of four animals and blood was collected after 30 minutes, 1 hour, 2 hours, 4 hours, 6 hours and 24 hours from the administration. (A feed was given after collection of the blood after 6 hours). Thus, each about […] (corresponding to four capillary tubes) of blood were collected with intervals using a heparintreated capillary tube and plasma was separated by a hematocrit centrifuge to prepare a plasma sample. A plasma sample of about […] was preserved at -80° C. until the measurement. Methanol ([…]) was added to […] of the plasma followed by mixing, the mixture was centrifuged at 1500×g for ten minutes at […] and the separated supernatant liquid was filtered through a membrane filter of […]. The filtrate was used as a sample for an HPLC, analyzed under the analyzing condition that the column was 100 mm×4.6 mm (inner diameter) of TSK-gel Super ODS, the flow rate was 1.0 mL/minute, the column temperature was 40° C., an injection amount was […], detection was done by UV of 225 nm and the mobile phase was water-acetonitrile (75:25 in terms of % by volume) and the maximum concentration in blood (Cmax), time required for achieving the maximum concentration in blood (Tmax), half life in blood (T1/2) and area under a curve of concentration in blood vs. time (AUC 0-lim) were determined. RS-25344 (Cell Signalling, 7(5), 527 (1995); Mol. Pharmacol., 48, 616 (1995)) and CR-77059 (J. Med. Chem., 34, 624 (1991); J. Pharmacol. Exp. Ther., 272, 3,1313 (1995)) were used as control drugs.
# [4] = test system: smooth muscle of blood vessel isolated from rats; test: Influence on continuous constriction of smooth muscle of blood vessel isolated from rats (noradrenaline-constricted pulmonary main artery); assay type: cell-based; conditions: rat pulmonary main artery, constricted with 10^-7 M noradrenaline, 37° C.; read-out: EC50, concentration showing 50% of the maximum reaction (relaxation)
# Procedure: Influence on Continuous Constriction of […] Smooth Muscle of Rats
# The back of the head of a rat was struck to cause a cerebral concussion, carotid arteries on both sides were immediately cut and the pulmonary main artery was isolated. The isolated artery was fully aerated with a mixed gas (95% O2 and 5% CO2), placed in a Krebs-Henselite solution warmed at 37° C., excessive tissues were removed as much as possible and a spiral sample (having a width of about 2 mm and a length of 15 mm) was prepared according to a method of Furchgott, et al. The blood vessel sample was hung with a load of about 0.5 g in a 5-mL Magnus vessel filled with a Krebs-Henseleit solution and aerated with a mixed gas (95% O2 and 5% CO2). After the sample was allowed to stand for 30 minutes to one hour, it was treated with noradrenaline (final concentration: 10^-7 M) and the constricting reaction was amplified via an amplifier for blood pressure using an FD pickup and recorded on a recorder. Noradrenaline (10^-7 M) was repeatedly applied and, after confirming that the constriction became constant, 10^-7 M of noradrenaline was applied. After the maximum shrinking reaction of the smooth muscle became constant, the test compound was added thereto starting from a low concentration cumulatively to investigate the relaxing action. A dose vs. reaction curve was prepared from the isotonic reaction of various concentrations of the test compound and an EC50, a concentration showing 50% of the maximum reaction, was determined.
smiles,measurement,setting,value
"CCn1c(=O)c2c(N)ccnc2n(CC)c1=O [Control Compound B, 5-Amino-1,3-diethyl-1,2,3,4-tetrahydropyrido[2,3-d]-pyrimidine-2,4-dione, reference compound]",EC50,[1],0.83 µM
same,Blepharoptosis,"[2]; mouse, in vivo, po, 100 mg/kg",(+) × 2
same,Muscle relaxation,"[2]; mouse, in vivo, po, 100 mg/kg",(+) × 3
same,Passiveness,"[2]; mouse, in vivo, po, 100 mg/kg",(+) × 1
same,Suppression of spontaneous motility,"[2]; mouse, in vivo, po, 100 mg/kg",(+) × 3
same,Suppression of spontaneous motility,"[2]; mouse, in vivo, po, 300 mg/kg",(+) × 3
same,Death,[2]; 100 mg/kg,0
same,Death,[2]; 300 mg/kg,0
"CCn1c(=O)c2ccc(N)nc2n(CC)c1=O [Control Compound A, 7-Amino-1,3-diethyl-1,2,3,4-tetrahydropyrido-[2,3-d]pyrimidine-2,4-dione, reference compound]",EC50,[1],1.01 µM
"COC(=O)c1cccc(-n2c(=O)n(Cc3ccccc3)c(=O)c3cccnc32)c1 [CP-77059, reference compound]","Concentration in blood (in words, Table 6)",[3],less than identification limit
"Cn1c(=O)c2[nH]cnc2n(C)c1=O [theophylline, reference compound]",EC50,[1],51 µM
COc1cc(OC)cc(-n2c(=O)n(CC(C)C)c(=O)c3ccc(N)nc32)c1 [Compound 15],AUC,[3],134 µg·h/mL
same,Cmax,[3],10100 ng/mL
same,half-life,[3],9.8 h
same,Tmax,[3],2.3 h
same,EC50,[1],0.21 µM
same,EC50,[4],> 100 µM
"CCCCn1c(=O)c2ccc(N)nc2n(-c2cc(OC)cc(OC)c2)c1=O [Compound 7, 7-amino-3-butyl-1-(3,5-dimethoxyphenyl)-1,2,3,4-tetrahydropyrido[2,3-d]pyrimidine-2,4-dione]",AUC,[3],28.6 µg·h/mL
same,Cmax,[3],1600 ng/mL
same,half-life,[3],131 h
same,Tmax,[3],15 h
same,EC50,[1],0.59 µM
same,Blepharoptosis,"[2]; mouse, in vivo, po, 300 mg/kg",(+) × 1
same,Muscle relaxation,"[2]; mouse, in vivo, po, 300 mg/kg",(+) × 2
same,Suppression of spontaneous motility,"[2]; mouse, in vivo, po, 300 mg/kg",(+) × 2
same,Muscle relaxation,"[2]; mouse, in vivo, po, 1000 mg/kg",(+) × 3
same,Death,[2]; 300 mg/kg,0
same,Death,[2]; 1000 mg/kg,0
"Nc1ccc2c(=O)n(Cc3ccsc3)c(=O)n(-c3ccccc3)c2n1 [Compound 39, 7-amino-1,2,3,4-tetrahydro-1-phenyl-3-(3-thienylmethyl)pyrido [2,3-d]pyrimidine-2,4-dione]",EC50,[1],0.027 µM
"Nc1ccc2c(=O)n(Cc3ccc(F)cc3)c(=O)n(-c3ccccc3)c2n1 [Compound 29, 7-amino-3-(4-fluorobenzyl)-1,2,3,4-tetrahydro-1-phenylpyrido[2,3-d]pyrimidine-2,4-dione]",EC50,[1],0.076 µM
"CCn1c(=O)c2ccc(N)nc2n(-c2cc(OC)cc(OC)c2)c1=O [Compound 5, 7-amino-3-ethyl-1-(3,5-dimethoxyphenyl)-1,2,3,4-tetrahydropyrido[2,3-d]pyrimidine-2,4-dione]",AUC,[3],458 µg·h/mL
same,Cmax,[3],30000 ng/mL
same,half-life,[3],12.1 h
same,Tmax,[3],3 h
same,EC50,[1],1.7 µM
same,EC50,[4],> 100 µM
same,Blepharoptosis,"[2]; mouse, in vivo, po, 1000 mg/kg",(+) × 3
same,Muscle relaxation,"[2]; mouse, in vivo, po, 1000 mg/kg",(+) × 3
same,Suppression of spontaneous motility,"[2]; mouse, in vivo, po, 1000 mg/kg",(+) × 2
same,Death,[2]; 1000 mg/kg,0
"Nc1ccc2c(=O)n(Cc3ccncc3)c(=O)n(-c3ccccc3)c2n1 [Compound 17, 7-amino-1,2,3,4-tetrahydro-1-phenyl-3-(4-picolyl) pyrido[2,3-d]pyrimidine-2,4-dione]",EC50,[1],0.019 µM
"COc1ccc(Cn2c(=O)c3ccc(N)nc3n(-c3ccccc3)c2=O)cc1 [Compound 28, 7-amino-1,2,3,4-tetrahydro-3-(4-methoxybenzyl)-1-phenylpyrido[2,3-d]pyrimidine-2,4-dione]",EC50,[1],0.045 µM
"Nc1ccc2c(=O)n(Cc3cccs3)c(=O)n(-c3ccccc3)c2n1 [Compound 37, 7-amino-1,2,3,4-tetrahydro-1-phenyl-3-(2-thienylmethyl)pyrido [2,3-d]pyrimidine-2,4-dione]",EC50,[1],0.021 µM
"O=c1c2cccnc2n(-c2cccc([N+](=O)[O-])c2)c(=O)n1Cc1ccncc1 [RS-25344, reference compound]","Concentration in blood (in words, Table 6)",[3],less than identification limit
"Nc1ccc2c(=O)n(Cc3ccccc3)c(=O)n(-c3ccccc3)c2n1 [Compound 16, 7-amino-3-benzyl-1,2,3,4-tetrahydro-1-phenylpyrido[2,3-d]pyrimidine-2,4-dione]",EC50,[1],0.023 µM
same,EC50,[4],50.1 µM
"COc1cc(OC)cc(-n2c(=O)n(Cc3ccccc3)c(=O)c3ccc(N)nc32)c1 [Compound 8, 7-amino-3-benzyl-1-(3,5-dimethoxyphenyl)-1,2,3,4-tetrahydropyrido[2,3-d]pyrimidine-2,4-dione]",EC50,[1],0.32 µM
"CCCn1c(=O)c2ccc(N)nc2n(-c2cc(OC)cc(OC)c2)c1=O [Compound 6, 7-amino-1-(3,5-dimethoxyphenyl)-1,2,3,4-tetrahydro-3-propylpyrido[2,3-d]pyrimidine-2,4-dione]",AUC,[3],256 µg·h/mL
same,Cmax,[3],13700 ng/mL
same,half-life,[3],28.4 h
same,Tmax,[3],4 h
same,EC50,[1],0.4 µM
same,EC50,[4],> 100 µM
same,Blepharoptosis,"[2]; mouse, in vivo, po, 300 mg/kg",(+) × 1
same,Suppression of spontaneous motility,"[2]; mouse, in vivo, po, 300 mg/kg",(+) × 1
same,Blepharoptosis,"[2]; mouse, in vivo, po, 1000 mg/kg",(+) × 2
same,Muscle relaxation,"[2]; mouse, in vivo, po, 1000 mg/kg",(+) × 2
same,Suppression of spontaneous motility,"[2]; mouse, in vivo, po, 1000 mg/kg",(+) × 2
same,Death,[2]; 300 mg/kg,0
same,Death,[2]; 1000 mg/kg,0
"COc1cc(OC)cc(-n2c(=O)n(Cc3ccncc3)c(=O)c3ccc(N)nc32)c1 [Compound 18, 7-amino-1-(3,5-dimethoxyphenyl)-1,2,3,4-tetrahydro-3-(4-picolyl)pyrido[2,3-d]pyrimidine-2,4-dione]",EC50,[1],0.061 µM
same,EC50,[4],> 100 µM
"Nc1ccc2c(=O)n(Cc3ccco3)c(=O)n(-c3ccccc3)c2n1 [Compound 38, 7-amino-3-(2-furfuryl)-1,2,3,4-tetrahydro-1-phenylpyrido [2,3-d]pyrimidine-2,4-dione]",EC50,[1],0.04 µM
